Data taken from ChEMBL document CHEMBL1129799, “Homology modeling of metabotropic glutamate receptors. (mGluRs) structural motifs affecting binding modes and pharmacological profile of mGluR1 agonists and competitive antagonists” (J Med Chem, 1996).

How the values were obtained:
[1] = molecular target: T1, Metabotropic glutamate receptor 1 (Homo sapiens, UniProt Q13255); experiment: Inhibitory concentration for half maximal inhibition of PI hydrolysis (mGluR1a)
[2] = molecular target: T1, Metabotropic glutamate receptor 1; experiment: Effective concentration for half maximal stimulation of PI hydrolysis (mGluR1a)

T1 sequence (Q13255 whole entry): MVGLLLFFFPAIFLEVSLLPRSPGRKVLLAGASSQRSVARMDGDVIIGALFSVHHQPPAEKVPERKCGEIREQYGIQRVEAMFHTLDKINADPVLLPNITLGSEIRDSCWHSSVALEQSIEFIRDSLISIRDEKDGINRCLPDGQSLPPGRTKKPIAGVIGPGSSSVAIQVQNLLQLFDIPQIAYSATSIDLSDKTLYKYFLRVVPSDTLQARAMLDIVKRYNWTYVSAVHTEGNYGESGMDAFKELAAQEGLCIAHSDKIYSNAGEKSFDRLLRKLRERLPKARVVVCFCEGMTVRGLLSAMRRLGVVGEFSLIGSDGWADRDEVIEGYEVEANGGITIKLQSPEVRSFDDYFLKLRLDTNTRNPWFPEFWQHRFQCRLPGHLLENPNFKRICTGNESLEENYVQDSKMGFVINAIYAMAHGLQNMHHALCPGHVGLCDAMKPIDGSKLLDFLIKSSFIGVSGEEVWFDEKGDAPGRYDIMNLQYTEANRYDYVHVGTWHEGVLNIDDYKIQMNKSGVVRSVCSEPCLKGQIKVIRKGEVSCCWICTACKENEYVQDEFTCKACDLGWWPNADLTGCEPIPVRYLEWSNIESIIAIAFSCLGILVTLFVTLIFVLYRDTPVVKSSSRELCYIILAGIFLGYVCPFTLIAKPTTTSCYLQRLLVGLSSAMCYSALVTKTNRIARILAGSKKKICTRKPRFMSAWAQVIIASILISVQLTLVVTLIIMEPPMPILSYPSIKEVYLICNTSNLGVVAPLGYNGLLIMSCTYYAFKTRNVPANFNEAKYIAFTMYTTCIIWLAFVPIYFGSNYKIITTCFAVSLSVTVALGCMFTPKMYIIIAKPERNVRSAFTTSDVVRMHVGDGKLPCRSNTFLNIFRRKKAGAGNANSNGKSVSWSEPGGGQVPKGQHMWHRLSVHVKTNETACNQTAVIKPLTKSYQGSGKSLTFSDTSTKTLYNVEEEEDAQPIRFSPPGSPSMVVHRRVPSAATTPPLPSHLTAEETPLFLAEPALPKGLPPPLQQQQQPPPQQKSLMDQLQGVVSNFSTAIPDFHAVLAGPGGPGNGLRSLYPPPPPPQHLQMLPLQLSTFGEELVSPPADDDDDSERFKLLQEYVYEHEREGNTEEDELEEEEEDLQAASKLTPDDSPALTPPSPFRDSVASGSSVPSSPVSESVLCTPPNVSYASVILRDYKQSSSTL

SMILES | IC50 [1] [µM] | EC50 [2] [µM]
N[C@H](C(=O)O)c1ccc(O)c(C(=O)O)c1 | 290 | –
NC1(C(=O)O)CCc2cc(C(=O)O)ccc21 (stereo unspecified) | 214 | –
N[C@H](C(=O)O)c1ccc(C(=O)O)c(O)c1 | 40 | –
N[C@H](C(=O)O)c1cc(=O)[nH]o1 [IBOTENIC ACID] | – | 6
N[C@H](C(=O)O)c1cccc(O)c1 | – | 68
N[C@H](C(=O)O)c1ccc(C(=O)O)cc1 | 65 | –
